Measured values published in US20240360148A1 (SUVALENT THERAPEUTICS, INC., priority 2021, published 2024).

Key:
SAE1 = SAE1 (Homo sapiens (Human), UniProt Q9UBE0+Q9UBT2); assay: SAE High Throughput Biochemical Assay (HTRF), 15 min preincubation; conditions: read-out: 15 min preincubation HTRF IC50 (μM) Ave, SAE1 12.5 nM, ATP 100 μM
Procedure, shortened: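 SAE1 (12.5 nM) was preincubated with compound for 15 min at RT in HEPES pH 7.5, 0.1% BSA, 10 mM MgCl2. The reaction was then started with SUMO-GST and UBC9-His (40 nM each) plus 100 μM ATP for 45 min. After KF stop, HTRF (anti-GST-XL665/anti-His-EuK) was read at 2 h and overnight; some compounds were tested singly at 25 micromolar as percent of control.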

[1] = test system: sumoylation levels (SUMO 2/3 conjugates) in HCT-116 cells; assay: HCT-116 4 Hour Cell Assay (Western, SUMO 2/3 conjugates); type: cell-based; conditions: Homo sapiens, HCT-116, 4 h, 4 h treatment, Anti-Sumo 2-3 immunoblot, read-out: HCT-116 Western 4 h IC50 (μM) Ave
Procedure, shortened: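 Cells treated 4 h with 11 three-fold dilutions from 25 μM; lysed in RIPA with NEM and Benzonase. Non-reducing SDS-PAGE immunoblot with anti-SUMO 2/3 mAb, IRDye fluorescent detection; conjugate signal normalized to total protein stain, IC50 from quantified bands.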

SAE1, sequence (Q9UBE0 whole entry): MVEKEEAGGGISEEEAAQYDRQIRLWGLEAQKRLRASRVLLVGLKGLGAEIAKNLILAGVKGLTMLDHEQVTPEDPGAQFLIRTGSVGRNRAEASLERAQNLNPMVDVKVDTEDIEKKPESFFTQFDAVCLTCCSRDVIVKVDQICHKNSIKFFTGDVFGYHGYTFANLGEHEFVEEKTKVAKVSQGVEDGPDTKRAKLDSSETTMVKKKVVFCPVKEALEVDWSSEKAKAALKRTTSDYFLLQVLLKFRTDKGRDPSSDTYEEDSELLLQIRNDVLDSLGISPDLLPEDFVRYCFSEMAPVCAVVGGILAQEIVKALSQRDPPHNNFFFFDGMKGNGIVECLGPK
SAE1, sequence (Q9UBT2 whole entry): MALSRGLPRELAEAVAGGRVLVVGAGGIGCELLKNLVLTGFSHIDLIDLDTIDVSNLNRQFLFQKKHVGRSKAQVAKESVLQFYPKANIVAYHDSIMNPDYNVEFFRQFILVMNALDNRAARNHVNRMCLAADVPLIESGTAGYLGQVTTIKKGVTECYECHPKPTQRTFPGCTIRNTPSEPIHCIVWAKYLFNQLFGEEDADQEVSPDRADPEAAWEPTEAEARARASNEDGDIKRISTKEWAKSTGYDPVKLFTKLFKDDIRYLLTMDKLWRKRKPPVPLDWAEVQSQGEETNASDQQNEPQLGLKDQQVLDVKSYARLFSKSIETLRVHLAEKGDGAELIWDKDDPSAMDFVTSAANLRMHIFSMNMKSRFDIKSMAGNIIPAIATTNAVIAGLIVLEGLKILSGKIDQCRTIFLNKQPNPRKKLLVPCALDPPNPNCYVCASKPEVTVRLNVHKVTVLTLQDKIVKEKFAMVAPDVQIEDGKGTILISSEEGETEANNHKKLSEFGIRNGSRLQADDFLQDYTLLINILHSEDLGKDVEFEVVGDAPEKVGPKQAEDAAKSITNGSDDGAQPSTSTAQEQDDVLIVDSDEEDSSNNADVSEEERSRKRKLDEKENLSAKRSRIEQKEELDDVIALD

Compound | IC50 [1] [µM] | IC50 (SAE1) [µM]
CCn1cc(-c2ccccc2[C@@H]2CN(C(=O)/C=C/CNC(C)(C)C)Cc3sc(C#N)cc32)c(C(F)(F)F)n1 [Example 101, (S, E)-6-(4-(tert-Butylamino)but-2-enoyl)-4-(2-(1-ethyl-3-(trifluoromethyl)-1 H-pyrazol-4-yl)phenyl)-4,5,6,7-tetrahydrothieno[2,3-c]pyridine-2-carbonitrile] | 0.732 | 2.24
CCn1cc(-c2c(C(F)F)cccc2C2CN(C(=O)/C=C/CN(C)C)Cc3sc(C#N)cc32)c(C(F)(F)F)n1 (stereo not drawn) [Compound 241] | 0.445 | 5.52
CCn1cc(C2=C(C3CN(C(=O)/C=C/CN(C)C)Cc4sc(C#N)cc43)CCCC2)c(C(F)(F)F)n1 (stereo not drawn) [Example 181, (E)-6-(4-(Dimethylamino)but-2-enoyl)-4-(2-(1-ethyl-3-(trifluoromethyl)-1 H-pyrazol-4-yl)cyclohex-1-en-1-yl)-4,5,6,7-tetrahydrothieno[2,3-c]pyridine-2-carbonitrile] | 0.878 | 3.16
CCn1cc(-c2c(C3CN(C(=O)/C=C/CN(C)C)Cc4sc(C#N)cc43)ccc(O)c2F)c(C(F)(F)F)n1 (stereo not drawn) [Example 189, (E)-6-(4-(Dimethylamino)but-2-enoyl)-4-(2-(1-ethyl-3-(trifluoromethyl)-1 H-pyrazol-4-yl)-3-fluoro-4-hydroxyphenyl)-4,5,6,7-tetrahydrothieno[2,3-c]pyridine-2-carbonitrile] | 0.46 | 1.67
CCn1cc(-c2ccccc2[C@@H]2CN(C(=O)C#CC3CCNC3)Cc3sc(C#N)cc32)c(C(F)(F)F)n1 (stereo partly drawn) [Example 146, (4S)-4-(2-(1-Ethyl-3-(trifluoromethyl)-1 H pyrazol-4-yl)phenyl)-6-(3-(pyrrolidin-3-yl)propioloyl)-4,5,6,7-tetrahydrothieno[2,3-c]pyridine-2-carbonitrile] | 0.501 | 1.92
CCn1cc(-c2ccccc2[C@@H]2CN(C(=O)/C=C/[C@H](C)NC)Cc3sc(C#N)cc32)c(C(F)(F)F)n1 [Example 84, (S)-4-(2-(1-Ethyl-3-(trifluoromethyl)-1 H pyrazol-4-yl)phenyl)-6-((S, E)-4-(methylamino)pent-2-enoyl)-4,5,6,7-tetrahydrothieno[2,3-c]pyridine-2-carbonitrile] | 0.503 | 2.79
CCn1cc(-c2cc(O)ccc2C2CN(C(=O)/C=C/CN(C)C)Cc3sc(C#N)cc32)c(C(F)(F)F)n1 (stereo not drawn) [Example 203, (E)-6-(4-(Dimethylamino)but-2-enoyl)-4-(2-(1-ethyl-3-(trifluoromethyl)-1 H-pyrazol-4-yl)-4-hydroxyphenyl)-4,5,6,7-tetrahydrothieno[2,3-c]pyridine-2-carbonitrile] | 0.767 | 4.75
CCn1cc(-c2ccccc2[C@@H]2CN(C(=O)/C=C/CNC3CC3)Cc3sc(C#N)cc32)c(C(F)(F)F)n1 [Example 102, (S, E)-6-(4-(Cyclopropylamino)but-2-enoyl)-4-(2-(1-ethyl-3-(trifluoromethyl)-1 H-pyrazol-4-yl)phenyl)-4,5,6,7-tetrahydrothieno[2,3-c]pyridine-2-carbonitrile] | 0.675 | 1.74
CCn1cc(-c2c(C)cccc2C2CN(C(=O)/C=C/CN(C)C)Cc3sc(C#N)cc32)c(C(F)(F)F)n1 (stereo not drawn) [Example 200, (E)-6-(4-(Dimethylamino)but-2-enoyl)-4-(2-(1-ethyl-3-(trifluoromethyl)-1 H-pyrazol-4-yl)-3-methylphenyl)-4,5,6,7-tetrahydrothieno[2,3-c]pyridine-2-carbonitrile] | 0.891 | 2.28
CCn1cc(-c2ccccc2[C@@H]2CN(C(=O)C#C[C@@]3(C)CCCN3)Cc3sc(C#N)cc32)c(C(F)(F)F)n1 [Example 141, (S)-4-(2-(1-Ethyl-3-(trifluoromethyl)-1 H pyrazol-4-yl)phenyl)-6-(3-((R)-2-methylpyrrolidin-2-yl)propioloyl)-4,5,6,7-tetrahydrothieno[2,3-c]pyridine-2-carbonitrile] | 4.88 | 0.35
CCn1cc(-c2cc(NS(C)(=O)=O)ccc2C2CN(C(=O)/C=C/CN(C)C)Cc3sc(C#N)cc32)c(C(F)(F)F)n1 (stereo not drawn) [Example 193, (E)-N-(4-(2-Cyano-6-(4-(dimethylamino)but-2-enoyl)-4,5,6,7-tetrahydrothieno[2,3-c]pyridin-4-yl)-3-(1-ethyl-3-(trifluoromethyl)-1 H-pyrazol-4-yl)phenyl)methanesulfonamide] | 8.85 | 9.08
CCn1cc(-c2c(Cl)cccc2C2CN(C(=O)/C=C/CN(C)C)Cc3sc(C#N)cc32)c(C(F)(F)F)n1 (stereo not drawn) [Example 201, (E)-4-(3-Chloro-2-(1-ethyl-3-(trifluoromethyl)-1 H-pyrazol-4-yl)phenyl)-6-(4-(dimethylamino)but-2-enoyl)-4,5,6,7-tetrahydrothieno[2,3-c]pyridine-2-carbonitrile] | 1.46 | 1.56
CCn1cc(-c2c(Cl)cccc2[C@@H]2CN(C(=O)/C=C/CN(C)C)Cc3sc(C#N)cc32)c(C(F)(F)F)n1 [Compound 243] | 0.502 | 1.17
CCNC/C=C/C(=O)N1Cc2sc(C#N)cc2[C@H](c2ccccc2-c2cn(CC)nc2C(F)(F)F)C1 [Example 99, (S, E)-4-(2-(1-Ethyl-3-(trifluoromethyl)-1 H-pyrazol-4-yl)phenyl)-6-(4-(ethylamino)but-2-enoyl)-4,5,6,7-tetrahydrothieno[2,3-c]pyridine-2-carbonitrile] | 0.563 | 2.83
CCn1cc(-c2ccccc2[C@@H]2CN(C(=O)C#CCN)Cc3sc(C#N)cc32)c(C(F)(F)F)n1 [Example 135, (S)-6-(4-Aminobut-2-ynoyl)-4-(2-(1-ethyl-3-(trifluoromethyl)-1H pyrazol-4-yl)phenyl)-4,5,6,7-tetrahydrothieno[2,3-c]pyridine-2-carbonitrile] | 1.2 | 0.51
CCn1cc(-c2ccccc2[C@@H]2CN(C(=O)/C=C/CN3CCC(C)C3)Cc3sc(C#N)cc32)c(C(F)(F)F)n1 (stereo partly drawn) [Example 32] | 2.05 | 3.9
CC(C#N)n1cc(-c2ccccc2[C@@H]2CN(C(=O)/C=C/CN(C)C)Cc3sc(C#N)cc32)c(C(F)(F)F)n1 (stereo partly drawn) [Example 165, (4S)-4-(2-(1-(1-Cyanoethyl)-3-(trifluoromethyl)-1H-pyrazol-4-yl)phenyl)-6-((E)-4-(dimethylamino)but-2-enoyl)-4,5,6,7-tetrahydrothieno[2,3-c]pyridine-2-carbonitrile] | 1.06 | 3.42

Stronger by IC50 [1], values ahead:

IC50 [1] [µM] | Compound | IC50 (SAE1) [µM]
0.402 | CCn1cc(-c2ccccc2C2CN(C(=O)/C=C/CN(C)C)Cc3sc(C#N)c(C)c32)c(C(F)(F)F)n1 (stereo not drawn) [Compound 232] | 1.36
0.356 | C=CC(=O)N1Cc2sc(C#N)cc2C(c2cccc(F)c2-c2cn(CC)nc2C(F)(F)F)C1 (stereo not drawn) [Compound 236] | 0.24
0.339 | CCn1cc(-c2c(F)cccc2C2CN(C(=O)/C=C/CN(C)C)Cc3sc(C#N)cc32)c(C(F)(F)F)n1 (stereo not drawn) [Compound 234] | 2.23
0.262 | CCn1cc(-c2ccccc2[C@@H]2CN(C(=O)/C=C/[C@@H]3C[C@@H](C)CN3)Cc3sc(C#N)cc32)c(C(F)(F)F)n1 [Example 114, (S)-4-(2-(1-Ethyl-3-(trifluoromethyl)-1 H-pyrazol-4-yl)phenyl)-6-((E)-3-((2S, 4R)-4-methylpyrrolidin-2-yl)acryloyl)-4,5,6,7-tetrahydrothieno[2,3-c]pyridine-2-carbonitrile] | 1.19
0.226 | CCn1cc(-c2ccccc2[C@@H]2CN(C(=O)/C=C/C3CCCN3)Cc3sc(C#N)cc32)c(C(F)(F)F)n1 (stereo partly drawn) [Example 107, (4S)-4-(2-(1-Ethyl-3-(trifluoromethyl)-1 H-pyrazol-4-yl)phenyl)-6-((E)-3-(pyrrolidin-2-yl)acryloyl)-4,5,6,7-tetrahydrothieno[2,3-c]pyridine-2-carbonitrile] | 2.07
0.178 | CCn1cc(-c2c(F)cccc2[C@@H]2CN(C(=O)/C=C/[C@@H]3C[C@@H]4C[C@@H]4N3)Cc3sc(C#N)cc32)c(C(F)(F)F)n1 [Example 123, (S)-6-((E)-3-((1S,3S,5S)-2-Azabicyclo[3.1.0]hexan-3-yl)acryloyl)-4-(2-(1-ethyl-3-(trifluoromethyl)-1H pyrazol-4-yl)-3-fluorophenyl)-4,5,6,7-tetrahydrothieno[2,3-c]pyridine-2-carbonitrile] | 1.17
0.134 | Cc1c(C#N)sc2c1[C@H](c1cccc(F)c1-c1c[nH]nc1C(F)(F)F)CN(C(=O)/C=C/CN(C)C)C2 [Compound 221] | 0.347
0.106 | CCn1cc(-c2c(F)cccc2[C@@H]2CN(C(=O)/C=C/CN)Cc3sc(C#N)c(C)c32)c(C(F)(F)F)n1 [Compound 224] | 0.172
0.0658 | Cn1cc(-c2c(F)cccc2[C@@H]2CN(C(=O)/C=C/[C@@H]3CCCN3)Cc3sc(C#N)cc32)c(C(F)(F)F)n1 [Example 128, (S)-4-(3-Fluoro-2-(1-methyl-3-(trifluoromethyl)-1H-pyrazol-4-yl)phenyl)-6-((E)-3-((S)pyrrolidin-2-yl)acryloyl)-4,5,6,7-tetrahydrothieno[2,3-c]pyridine-2-carbonitrile] | 0.75
0.0573 | Cc1c(C#N)sc2c1[C@H](c1cccc(F)c1-c1cn(C)nc1C(F)(F)F)CN(C(=O)/C=C/CN(C)C)C2 [Compound 220] | 0.067
